How the values were obtained:
Detroit-562 cells [1] = test: Cellular morphology evaluation (bright field), Detroit-562; assay type: cell-based, human; settings: Detroit-562, Eug 0.1 mM, 72 h, vs control
Experimental: (§1) As a means of determining the impact of Eug on the morphology of cells, the microscopic evaluation of SAOS-2 and Detroit-562 cells was carried out after exposure for 72 h. The changes were observed under bright field illumination with the help of the Olympus IX73 inverted microscope (Olympus, Tokyo, Japan), and the processing of the images for the purpose of analysis was carried out by means of CellSens Dimensions v.17 Software (Olympus, Tokyo, Japan).

[2] = system: Bax, Bad, Bcl-2 mRNA in SAOS-2 cells; test: RT-PCR expression of apoptosis-related genes, SAOS-2; assay type: cell-based, human; settings: SAOS-2, Eug 0.5 mM, 72 h, normalized to 18S
Experimental: (§2) To investigate the potential cell-death mechanism induced by Eug 0.5 mM in SAOS-2 and Detroit-562 cells, the expression of pro-apoptotic (Bax, Bad) and anti-apoptotic (Bcl-2) markers was evaluated using the real-time reverse transcription–polymerase chain reaction (RT-PCR) technique after 72 h of treatment. RNA extraction was performed using the Quick-RNA Miniprep Kit (Zymo Research, Irvine, CA, USA), and the amount of extracted RNA was measured with the DS-11 spectrophotometer (DeNovix, Wilmington, DE, USA). The cDNA was produced using the Maxima® First Strand cDNA Synthesis Kit, and the RT-qPCR quantification was performed using a Quant Studio 5 real-time PCR system (Thermo Fisher Scientific, Inc., Waltham, MA, USA) and Power SYBR-Green PCR Master Mix (Thermo Fisher Scientific, Inc., Waltham, MA, USA).

[3] = system: colorectal carcinoma cells (HCT-116); parameters: method as in doi:10.31925/farmacia.2023.2.8; settings: HCT-116, Eug between 0.1 and 1 mM; cited from earlier work
keratinocytes (HaCaT) = settings: cited from earlier work
[4] = system: caspases 3/7, 8, and 9 in Detroit-562 cells; test: Caspase-Glo caspase-3/7, -8, -9 activity, Detroit-562; assay type: cell-based, human; settings: Detroit-562, Eug 0.5 mM, 72 h
Experimental: (§3) The activity of caspases 3/7, 8, and 9 was determined after the SAOS-2 and Detroit-562 cells’ 72 h treatment with Eug 0.5 mM, using the Caspase-Glo Kit provided by Promega, Madison, WI, USA. The plates were first equilibrated at room temperature for 30 min, then, the Caspase-Glo reagent (100 μL/well) was added. The plates were shaken for 30 s on a plate shaker and maintained at room temperature for another 2 h. Finally, the luminescence was measured on Cytation 5 (BioTek Instruments Inc., Winooski, VT, USA).

SAOS-2 cells [5] = test: Cellular morphology evaluation (bright field), SAOS-2; assay type: cell-based, human; settings: SAOS-2, concentrations higher than 0.1 mM, 72 h
Experimental: as §1

Detroit-562 cells [6] = test: DAPI nuclear morphology / apoptotic index, Detroit-562; assay type: cell-based, human; settings: 72 h
Experimental: (§4) Using immunofluorescence, it was possible to provide further details regarding Eug’s effects on osteosarcoma and oropharynx squamous carcinoma nuclei. The technique was performed for cells stimulated with Eug 0.5 and 1 mM for 72 h. The applied protocol assumed the following stages: (i) culturing the cells in 12-well plates and stimulating them after reaching the desired confluence with Eug 0.5 and 1 mM for 72 h; (ii) washing with PBS and fixing the cells with 4% paraformaldehyde; (iii) permeabilization with Triton X 0.2%; (iv) blocking the permeabilization with a FCS solution in Triton X 0.01%; and (v) adding DAPI for 15 min. The pictures were then taken with Cytation 1 and processed using Gen5™ Micro-plate Data Collection and Analysis Software v. 3.12 (BioTek® Instruments Inc., Winooski, VT, USA). For a quantitative analysis of the Eug impact at the cellular level, the cell apoptosis index (AI) was calculated using the previously described formula [76]: AI=Number of apoptotic cells/Total number of cells×100
(§5) In accordance with the published protocols, the nuclear morphology was evaluated using ImageJ software v.6 [77].

[7] = system: tongue squamous carcinoma cells (SCC4); parameters: method as in PMID 36675971; settings: SCC4, Eug between 0.1 and 1 mM; cited from earlier work
Detroit-562 cells [8] = test: RealTime-Glo Annexin V Apoptosis and Necrosis Assay, Detroit-562; assay type: cell-based, human; settings: Detroit-562, Eug 0.5 mM, 0-72 h
Experimental: (§6) To confirm the apoptotic effect of Eug 0.5 mM in Saos-2 and Detroit-562 cells, the RealTime-Glo™ Annexin V Apoptosis and Necrosis Assay was performed according to the manufacturer’s protocol. In brief, the cells were cultured in solid white bottom 96-well plates (Costar® 3917) and treated with Eug. The prepared 2X Detection Reagent that contained Annexin V NanoBiT™ Substrate, Annexin V-SmBiT, Annexin V-LgBiT, CaCl2, and Necrosis Detection Reagent was added in each well and the plates were shaken for 30 s at 500 rpm. The luminescence and fluorescence (excitation 485 ± 20 nm, and emission 525 ± 30 nm) were recorded at different time points (0, 6, 12, 24, 48, and 72 h post-treatment) using Cytation 5. Background signals (from no-cell wells) that were subtracted from the wells that contained cells.

[9] = system: SAOS-2 (human osteosarcoma cells); test: MTT cell viability assay, SAOS-2; assay type: cell-based; settings: 72 h, read-out: cell viability (normalized to control)
Experimental: (§7) The present study was performed on two human cancer cell lines—SAOS-2 (osteosarcoma cells) and Detroit-562 (oropharynx squamous carcinoma cells), respectively, which were received from ATCC in the form of frozen vials. SAOS-2 cells were cultured in DMEM, while Detroit-562 cells were cultured using EMEM. Both media contained 10% FCS and 1% penicillin (100 U/mL)–streptomycin (100 μg/mL) mixture. Over the course of the experiments, the cells were incubated at 37 °C and 5% CO2.
(§8) A colorimetric approach—the MTT [[…])-2,5-diphenyltetrazolium bromide] assay, was used to determine cell viability. This was accomplished by cultivating the cells in 96-well plates at a density of 1x10^4 cells per well. Upon achieving a confluence of approximately 90%, the cells were stimulated for 72 h with five concentrations of Eug (0.1; 0.25; 0.5; 0.75 and 1 mM). The Eug solutions were prepared by diluting stock solution in culture medium. After this time interval, 10 μL of MTT reagent was added to each well, and the cells were incubated for three hours at 37 °C. To solubilize the MTT formazan crystals, 100 μL of solubilizer were added to each well, and after 30 min, the absorbance was measured at 570 nm using Cytation 5 (BioTek Instruments Inc., Winooski, VT, USA).

[10] = system: caspases 3/7, 8, and 9 in SAOS-2 cells; test: Caspase-Glo caspase-3/7, -8, -9 activity, SAOS-2; assay type: cell-based, human; settings: SAOS-2, Eug 0.5 mM, 72 h
Experimental: as §3

[11] = system: gingival fibroblasts (HGF); parameters: method as in PMID 36675971, doi:10.31925/farmacia.2023.2.8; settings: same concentration and time interval as current study; cited from earlier work
SAOS-2 cells [12] = test: DAPI nuclear morphology / apoptotic index, SAOS-2; assay type: cell-based, human; settings: 72 h
Experimental: as §4, §5

[13] = system: Bax, Bad, Bcl-2 mRNA in Detroit-562 cells; test: RT-PCR expression of apoptosis-related genes, Detroit-562; assay type: cell-based, human; settings: Detroit-562, Eug 0.5 mM, 72 h, normalized to 18S
Experimental: as §2

SAOS-2 cells [14] = test: RealTime-Glo Annexin V Apoptosis and Necrosis Assay, SAOS-2; assay type: cell-based, human; settings: SAOS-2, Eug 0.5 mM, 0-72 h
Experimental: as §6

[15] = system: chorioallantoic membrane of hen's eggs; test: Hen's Egg Test - Chorioallantoic Membrane (HET-CAM); assay type: in vivo, Gallus gallus domesticus; parameters: key to IS (irritation score): IS = 5×(301−H)/300 + 7×(301−L)/300 + 9×(301−C)/300; tH, time at which hemorrhage was established / tL, time at which vascular lysis was established / tC, time at which intravascular coagulation was established: unit not given here; settings: Eug 1 mM / SDS 1%, monitored 5 min; for IS (irritation score): 600 µL on CAM
Experimental: The irritant and toxic potential of Eug (1 mM) at the vascular level was assessed by performing the HET-CAM assay, as previously described. In brief, several steps were followed: […] (ii) on day 4 after incubation, a perforation was made in each egg to extract 6 to 7 mL of albumen; (iii) on the next day of incubation, a window was cut in the upper part of the eggs to facilitate the visualization of the blood vessels, and was covered using adhesive tape; (iv) on day 10 of incubation, 600 µL of each sample (negative control—H2O, positive control—SDS 1%, and Eug 1 mM) were added to the chorioallantoic membrane; (v) the compounds’ ability to produce hemorrhage (H), vascular lysis (L), and coagulation was monitored for 5 min, taking photos (using the Discovery 8 Stereomicroscope from Zeiss, Göttingen, Germany and the Zeiss Axio CAM 105 color camera) prior to the addition of the samples (T0) and at the end of the 5 min period (T5); and (vi) the irritation score (IS) was finally determined for each sample, according to the following formula: IS=5×301−H/300+7×301−L/300+9×301−C/300, where IS = irritation score, H—the time at which the hemorrhage was observed, L—the time at which vascular lysis occurred and C—the time at which intravascular coagulation was established.

[16] = system: Detroit-562 (oropharynx squamous carcinoma cells); test: MTT cell viability assay, Detroit-562; assay type: cell-based; settings: Homo sapiens, 72 h, read-out: cell viability (normalized to control)
Experimental: as §7, §8

SAOS-2 cells [17] = system: SAOS-2 cells; parameters: method as in PMID 26929741; settings: SAOS-2, 100 μM; cited from earlier work
[18] = Detroit-562, Eug 0.5 and 1 mM, vs control
[19] = SAOS-2, Eug 0.5 and 1 mM, vs control

C=CCc1ccc(O)c(OC)c1 [Eug, 4-alil-2-metoxifenol]
changes in aspect or confluence of cells (Detroit-562 cells [1]): no significant changes
expression of anti-apoptotic marker Bcl-2 (mRNA) [2]: decreasing
expression of pro-apoptotic marker Bad (mRNA) [2]: significantly increasing
expression of pro-apoptotic marker Bax (mRNA) [2]: significantly increasing
decrease in cell viability [3]: up to 34%
decrease in cell viability (keratinocytes (HaCaT); HaCaT, same concentration and time interval as current study): ≤ 70%
activation of caspase 3/7 [4]: significant increase
activation of caspase 8 [4]: significant increase
activation of caspase 9 [4]: significant increase
impact on cellular shape and confluence (SAOS-2 cells [5]): significant impact
apoptotic index (AI) (Detroit-562 cells [6]; Detroit-562, Eug 0.5 mM, DAPI): 30%
nucleus area (Detroit-562 cells [6]; [18]): decreased significantly
nucleus circumference (Detroit-562 cells [6]; [18]): decreased significantly
cell viability (in words) [7]: dose-dependent decrease
luminescence signal (phosphatidylserine externalization), preceding the fluorescence increase (Detroit-562 cells [8]): time-dependent increase
viability at 100 µM ([9]; SAOS-2, Eug 0.1 mM): 92%
viability at 1000 µM ([9]; SAOS-2, Eug 1 mM): 41%
activation of caspase 3/7 [10]: significant increase
activation of caspase 8 [10]: significant increase
activation of caspase 9 [10]: significant increase
decrease in cell viability [11]: ≤ 70%
apoptotic index (AI) (SAOS-2 cells [12]; SAOS-2, Eug 0.5 mM, DAPI): 25%
nucleus area (SAOS-2 cells [12]; [19]): decreased significantly
nucleus circumference (SAOS-2 cells [12]; [19]): decreased significantly
expression of anti-apoptotic marker Bcl-2 (mRNA) [13]: decreasing
expression of pro-apoptotic marker Bad (mRNA) [13]: significantly increasing
expression of pro-apoptotic marker Bax (mRNA) [13]: significantly increasing
luminescence signal (phosphatidylserine externalization), preceding the fluorescence increase (SAOS-2 cells [14]): time-dependent increase
IS (irritation score) [15]: 1.69
tC, time at which intravascular coagulation was established [15]: 263
tH, time at which hemorrhage was established [15]: 300
tL, time at which vascular lysis was established [15]: 278
viability at 100 µM ([16]; Detroit-562, Eug 0.1 mM): 89%
viability at 1000 µM ([16]; Detroit-562, Eug 1 mM): 37%

CCCCCCCCCCCCOS(=O)(=O)[O-].[Na+] [SDS, sodium dodecyl sulfate, reference compound]
IS (irritation score) [15]: 19.87
tC, time at which intravascular coagulation was established [15]: 15
tH, time at which hemorrhage was established [15]: 21
tL, time at which vascular lysis was established [15]: 17

CN(Cc1cnc2nc(N)nc(N)c2n1)c1ccc(C(=O)N[C@@H](CCC(=O)O)C(=O)O)cc1 [methotrexate, reference compound]
cell viability (in words) (keratinocytes (HaCaT); non-tumor cells HaCaT, methotrexate more pronounced): reduced cell viability in a dose-dependent manner
cell viability (SAOS-2 cells [17]): below 20%
